Experimental findings from paper PMC9070634 (Cell, 2021) are described below.

The target of series [1] is T1, BcPycTIR (Burkholderia cepacia, UniProt A0A0J5WTU0).
T1 sequence (A0A0J5WTU0 1-303): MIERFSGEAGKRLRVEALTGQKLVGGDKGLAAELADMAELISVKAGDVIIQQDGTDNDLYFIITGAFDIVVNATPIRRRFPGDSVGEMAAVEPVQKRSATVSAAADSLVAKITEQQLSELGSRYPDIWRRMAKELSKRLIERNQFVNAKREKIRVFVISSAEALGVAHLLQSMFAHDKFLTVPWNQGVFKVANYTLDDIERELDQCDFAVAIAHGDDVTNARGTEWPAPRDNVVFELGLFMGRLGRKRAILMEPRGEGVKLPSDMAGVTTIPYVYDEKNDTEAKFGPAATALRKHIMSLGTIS
In words: HPLC of NAD+ cleavage. Type of series: biochemical. To be noted: 500 uM NAD+, 500 nM protein, 250 nM cUMP as activator, 25 C, 1 h.

The target of series [2] is T1, BcPycTIR. Briefly: fluorescence plate reader, initial rates. Type of series: biochemical. The settings on record: 500 uM substrate, 1 uM protein, cUMP as activator, pH 7.5, 100 mM KCl.
For series [3], the target named is PaPycC (Pseudomonas aeruginosa, UniProt P0DV40). Briefly: thin-layer chromatography with alpha-32P-UTP. Type of series: biochemical. To be noted: labelled compound (trace); 10 mM MgCl2, 1 mM MnCl2, pH 8.5, 37 C.
The target in series [4] is T2, BcPycC (Burkholderia cepacia, UniProt A0A0J5ZXG5).
T2 sequence (A0A0J5ZXG5 1-229 limits assumed): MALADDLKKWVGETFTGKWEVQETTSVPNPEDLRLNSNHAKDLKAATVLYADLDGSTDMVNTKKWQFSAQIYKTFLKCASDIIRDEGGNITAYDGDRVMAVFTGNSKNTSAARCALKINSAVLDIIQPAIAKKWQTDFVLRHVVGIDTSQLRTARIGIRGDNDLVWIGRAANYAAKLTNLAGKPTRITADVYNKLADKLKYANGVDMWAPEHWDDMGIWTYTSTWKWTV
In words: HPLC. The settings on record: 10 mM MgCl2, 1 mM MnCl2, 37 C. Type of series: biochemical.

Series [5] deals with the molecule itself. In words: crystal structure.
Series [6] concerns the molecule itself. In words: negative stain electron microscopy.

Sequence of PaPycC (P0DV40 whole entry): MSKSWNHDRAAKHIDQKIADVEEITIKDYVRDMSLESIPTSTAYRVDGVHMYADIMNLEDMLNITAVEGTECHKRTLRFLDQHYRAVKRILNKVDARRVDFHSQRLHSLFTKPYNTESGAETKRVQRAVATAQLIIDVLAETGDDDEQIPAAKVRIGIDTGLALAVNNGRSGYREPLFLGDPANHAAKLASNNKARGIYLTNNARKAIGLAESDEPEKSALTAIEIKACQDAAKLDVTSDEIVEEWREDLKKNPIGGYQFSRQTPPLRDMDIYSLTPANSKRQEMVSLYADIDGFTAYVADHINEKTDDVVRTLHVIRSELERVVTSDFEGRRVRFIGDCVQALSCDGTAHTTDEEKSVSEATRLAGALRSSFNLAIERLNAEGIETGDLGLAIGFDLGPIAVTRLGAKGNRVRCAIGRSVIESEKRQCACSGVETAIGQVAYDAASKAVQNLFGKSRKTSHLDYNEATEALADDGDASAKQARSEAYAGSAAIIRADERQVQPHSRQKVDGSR

`NC(=O)c1ccc[n+]([C@@H]2O[C@H](COP(=O)(O)OP(=O)(O)OC[C@H]3O[C@@H](n4cnc5c(N)ncnc54)[C@H](O)[C@@H]3O)[C@@H](O)[C@H]2O)c1` [NAD^+]: the “HPLC of NAD+ cleavage” value in series [1] is given as “Incubation of BcPycTIR with cUMP triggered robust NADase activity”.

Take `NC(=O)c1ccc[n+]([C@@H]2O[C@H](COP(=O)(O)OP(=O)(O)OC[C@H]3O[C@@H](n4cnc5c4ncn4ccnc54)[C@H](O)[C@@H]3O)[C@@H](O)[C@H]2O)c1` [ε-NAD^+]: the “fluorescence plate reader, initial rates” value in series [2] is reported as “NAD^+ cleavage activity of BcPycTIR using the fluorescent substrate ε-NAD^+”.

For the molecule `O=c1ccn([C@@H]2O[C@H](COP(=O)(O)OP(=O)(O)OP(=O)(O)O)[C@@H](O)[C@H]2O)c(=O)[nH]1` [UTP], the “thin-layer chromatography with alpha-32P-UTP” value in series [3] is listed as “demonstrated that PaPycC is an active uridylate cyclase”.

As to `O=c1ccn([C@@H]2O[C@@H]3COP(=O)(O)O[C@H]3[C@H]2O)c(=O)[nH]1` [cUMP], the “HPLC; MSMS against standard” value in series [4] is “MSMS fragmentation spectra of a cUMP standard (bottom) and the BcPycC cyclase product (top)”.

B1: clade B uridylate cyclase from Burkholderia cepacia LK29 (BcPycC) (enzyme)
chain: ALADDLKKWVGETFTGKWEVQETTSVPNPEDLRLNSNHAKDLKAATVLYADLDGSTDMVNTKKWQFSAQIYKTFLKCASDIIRDEGGNITAYDGDRVMAVFTGNSKNTSAARCALKINSAVLDIIQPAIAKKWQTDFVLRHVVGIDTSQLRTARIGIRGDNDLVWIGRAANYAAKLTNLAGKPTRITADVYNKLADKLKYANGVDMWAPEHWDDMGIWTYTSTWKWTV
As to B1, the binding result in series [5] is on record as “binds”.

B2: TIR-domain effector protein from Burkholderia cepacia LK29 (BcPycTIR) (enzyme)
chain: T1 sequence (A0A0J5WTU0 1-303)
In the case of B2, the binding result in series [6] was “binds”.
